According to patent publication US12064488B2, “Nitroxide containing amyloid binding agents for imaging and therapeutic uses” (The Regents of the University of California, priority 2015, dated 2024):

Key:
[1] = biological target: T1, amyloid (AB) in 5xFAD mouse brain tissue (Homo sapiens, UniProt P05067); experiment: EPR spectroscopy of brain slices labeled in vitro; assay type: binding; details: 5xFAD brain tissue treated in vitro
T1 construct: produces elevated amyloid beta levels in the brain; from tissue; host or cells: brain of 5xFAD transgenic mice (400 µm coronal slices)
T1 sequence (P05067 672-713 limits assumed): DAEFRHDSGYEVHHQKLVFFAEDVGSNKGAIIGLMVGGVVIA
Excerpt: Samples were loaded into a quartz cell and examined by electron paramagnetic resonance (EPR) spectroscopy. […] Thus, in agreement with results from the MRI measurements, the lack of EPR signal from the WT+SLF brain section excludes non-specific binding of SLF in these tissue samples. […] The broad EPR spectrum from the +SLF 5xFAD reflects a strongly immobilized spin probe, consistent with high affinity binding to a solidified matrix.

MC65 neuroblastoma cell = experiment: MC65 assay: protection against AB toxicity (MTT cell viability); assay type: cell-based, human; details: MC65 cells, TC removal, 3 days
Excerpt: The ability of agents to protect against AB toxicity can be measured according to their effect on the survivability of MC65 neuroblastoma cell (Maezawa et al. (2008) J. Neurochem. 104:457). In the MC65 model system, expression of the C-terminal region (C99) of the amyloid precursor protein (APP) is turned on in the absence of the transgene suppressor, tetracycline (TC). Upon APP-C99 induction (TC-), AB is generated after proteolysis by cellular γ-secretase […]. In the absence of protection, death of MC65 neuroblastoma cells results due to the intracellular accumulation of oligomeric AB (ABO). […] In Table 2 below, we report the ability of the SL-LRL1, SL-LRL2, SL-Res1, SL-Res2, and SL-Res3 compounds to protect against AB toxicity in the MC65 assay.
The cell culture model used for these studies was the human neuroblastoma cell line (MC65) equipped with conditional expression of the carboxyl-terminal 99 residues of the amyloid-beta precursor protein (APP-C99). AB is generated from APP-C99 after proteolysis by cellular γ-secretase. To induce cellular AB production, the transgene suppressor, tetracycline (TC), was removed from the media, as described previously (Maezawa et al. (2008)). Intracellular ABO starts to accumulate as early as 4 hours after TC removal. The compounds were added immediately after TC removal, and the cells were maintained for 3 days without media change before measuring cell viability. The cytotoxicity was determined on day 3 using a colorimetric MTT [3-(4,5-dimethylthiazol-2yl)-2,5-diphenyltetrazolium bromide] cell viability assay.

[2] = biological target: T2, amyloid plaque (AB) in 5xFAD mouse brain slices (Homo sapiens, UniProt P05067); experiment: T2/T2*-weighted MRI of coronal brain slices labeled in vitro with spin-labeled compound; details: 5xFAD brain slices/specimens incubated in vitro with compound
T2 construct: produces elevated amyloid beta levels in the brain; from tissue; host or cells: brain of 5xFAD transgenic mice (400 µm coronal slices)
T2 sequence (P05067 672-713 limits assumed): as above
Description: MR images of coronal brain slices (400 μm thick) were obtained from a transgenic AD mouse model (5xFAD) with and without exposure to HO-4160 nitroxide spin-labeled […] (SLF), where the SLF-negative sample was treated with DMSO vehicle equal to the SLF-exposed sample. Following the labeling period with either SLF or the DMSO vehicle control, the brain slices were imbedded into agarose and imaged by MRI. Measurements were made in three separate experiments, using slices from unique AD and wild type (WT) mice in each experiment.
5xFAD brain slices treated with SLF decrease in intensity to a mean value of 1.6±0.1×10^5, compared to the T2-weighted images of the untreated samples, with a mean value of 2.6±0.1×10^5. Evaluation of the two sets by the unpaired t-test supports a significant difference among these groups (p<0.01). With respect to T2*, there also is a significant (p<0.02) intensity difference between the two groups of 5xFAD specimens, with a mean intensity of 1.4±0.2×10^5 for the SLF-treated samples, and a mean intensity of 2.3±0.1×10^5 for the untreated samples. In addition, T2 and T2*-weighted imaging of corresponding slices from WT mice show no difference between the SLF-treated and SLF-negative (not shown) specimens.
Both T2 and T2* signal suppression was calculated in each of the three experiments. The average suppression values were calculated according to the equation: SS %=[(SIref−SI)/SIref]*100 where SI is the average signal intensity of the 5xFAD SLF+ section and SIref is the average signal intensity of the 5xFAD SLF− or WT SLF+ section. Calculation results are plotted in FIG. 7, where both the gray and white bars represent the suppression of MRI intensity found in the 5xFAD specimen following SLF treatment. The gray bars show signal suppression relative to the untreated 5xFAD brain, while the white bars compare the suppression relative to the SLF-treated specimens from WT mice. Relative to both controls, SLF generates ˜40% signal suppression for samples carrying a high amyloid-beta load. In the absence of SLF, the average intensity of the 5xFAD brain sections have a slightly lower T2/T2* MRI intensity than specimens from WT mice. This can be attributed to iron bound to deposits of AB, which has been previously observed in the MRI analyses of AD model mice (Vanhoutte et al. (2005); Jack et al. (2007); and Wadghiri et al. (2012)). Thus, the relative suppression is slightly higher when comparing the +SLF AD sample to the +SLF WT sample.

## Cc1c(C(N)=O)c(=O)oc2cc3c(cc12)nc(NCCNC(=O)C1CC(C)(C)N([O])C1(C)C)n3Cc1cccc(I)c1 (centres unmarked) [SL-LRL1, 3-(3-iodobenzyl)-8-methyl-6-oxo-2-((2-(2,2,5,5-tetramethyl-1-oxylpyrrolidine-3-carboxamido)ethyl)amino)-3,6-dihydrochromeno[6,7-d]imidazole-7-carboxamide Radical]
[1]
  EPR signal / binding to brain tissue: confirming the binding
MC65 neuroblastoma cell
  EC50: 4.5 µM
[2]
  contrast in T2*-weighted imaging: strong negative contrast

## Cc1c(C(N)=O)c(=O)oc2cc3c(cc12)nc(NCC1=CC(C)(C)N([O])C1(C)C)n3Cc1cccc(I)c1 [SL-LRL2, 3-(3-iodobenzyl)-8-methyl-6-oxo-2-(((2,2,5,5-tetramethyl-1-oxyl-2,5-dihydro-1H-pyrrol-3-yl)methyl)amino)-3,6-dihydrochromeno[6,7-d]imidazole-7-carboxamide Radical]
MC65 neuroblastoma cell
  EC50: 3.5 µM
[2]
  contrast in T2*-weighted imaging: ability to generate negative contrast

## CC1(C)C=C(COc2cc(O)cc(/C=C/c3ccc(O)cc3)c2)C(C)(C)N1[O] [SL-Res1]
MC65 neuroblastoma cell
  EC50: 0.45 µM
[2]
  contrast in T2*-weighted imaging: ability to generate negative contrast

## CC1(C)CC(NC(=O)COc2cc(O)cc(/C=C/c3ccc(O)cc3)c2)C(C)(C)N1[O] (centres unmarked) [SL-Res2, (E)-2-(3-hydroxy-5-(4-hydroxystyryl)phenoxy)-N-(2,2,5,5-tetramethyl-1-oxylpyrrolidin-3-yl)acetamide Radical]
MC65 neuroblastoma cell
  EC50: 0.68 µM
[2]
  contrast in T2*-weighted imaging: ability to generate negative contrast

## CC1(C)C=C(C(=O)Oc2ccc(/C=C/c3cc(O)cc(O)c3)cc2)C(C)(C)N1[O] [SL-Res3, (E)-4-(3,5-dihydroxystyryl)phenyl 2,2,5,5-tetramethyl-1-oxyl-2,5-dihydro-1H-pyrrole-3-carboxylate Radical]
MC65 neuroblastoma cell
  EC50: 0.41 µM
[2]
  contrast in T2*-weighted imaging: ability to generate negative contrast
